From US7256172B1, “Method of treatment and agents useful for same” (The University of Melbourne, priority 1998, dated 2007)
Read-outs that look alike come from different tables or passages of the source. No end group written: not given here.

Columns and labels:
mouse bronchial rings = settings: for relaxation in presence of NO blockers: L—NOARG (100 μM) and HbO (20 μM); for response of epithelium-intact bronchi: contracted to approximately 40% Fmax with carbachol; for relaxation after removal of the epithelium: epithelium removed with 0.1% v/v Triton X-100; for response in presence of cyclooxygenase inhibitors: indomethacin (3 μM) or aspirin (100 μM); for maximum relaxation (Rmax) / sensitivity (pEC50): main bronchi with epithelium; for maximum relaxation (Rmax): % of initial force to carbachol; for sensitivity (pEC50): contracted with carbachol; for response after desensitisation to thrombin: post-thrombin; for response after desensitisation to trypsin: post-trypsin
Text: (§1) The right and left main bronchi and their first order branches of specific pathogenfree (SPF) Balb/c mice (15–20 g; either sex), Hartley tricolour guinea-pigs (300–400 g; male) and Sprague-Dawley rats (200–350 g; either sex), all killed by either cervical dislocation or overdosed (i.p.) with sodium pentobarbitone, were cleared of surrounding connective tissue, nerves and blood vessels under a dissecting microscope and placed in cold, carbogenated (95% v/v O2,5% v/v CO2) Krebs solution (Kemp and Cocks, 1997). Human airway preparations (0.5–1 mm in external diameter) were dissected from lungs of cancer patients undergoing thoracotomy at The Royal Melbourne Hospital, Melbourne, Australia. The epithelium was removed from some bronchi either by mechanical abrasion of the luminal surface (guinea-pig) or by brief, gentle intraliminal flushing of the airways with Krebs containing 0.1% v/v Triton-X100 (mouse and rat). In each case, removal of the epithelium was verified histologically in 8 μm formalin-fixed, paraffin sections stained with haemotoxylin and eosin. Ring segments (approximately 2 mm long) of bronchi and bronchioles were mounted in Krebs (37° C.) on stainless steel wires (40 μm) in dual channel (5 ml) Mulvany-Halpern myographs (JP Trading, Aarhus, Denmark) to record changes in isometric force (Kemp and Cocks, 1997). After equilibration at a passive force between 0.2 g and 0.3 g, tissues were contracted to their maximum levels of active force (Fm.),) with acetylcholine (30 μM), thoroughly washed with Krebs and allowed to return to baseline. Various drugs or their vehicles were then added and 30 min later all tissues were contracted to approximately 40% Fmax with titrated concentrations of carbachol (10–500 nM). The L-type voltage-operated Ca^2+ channel inhibitor, nifedipine (0.3 μM) was added to all mouse and rat tissues after obtaining Fmax to control characteristic phasic contractile activity with carbachol.
If no response occurred the tissues were then exposed to cumulative concentrations of either SLIGRL—NH2 (SEQ ID NO:2) or SFLLRN—NH2 (SEQ ID NO:1) (0.1–30 μM).
(§2) Results are presented as mean±s.e mean and pEC50 (sensitivity) values were calculated by fitting concentration-response curves to a four parameter logistic function (Kemp and Cocks, 1997) using Graphpad Prism (version 2.0). Statistical comparison of mean pEC50 and maximum response (Rmax) values were compared by two-tailed unpaired Student's t-tests or one way analysis of variance (ANOVA) with Tukey-Kramer's t-tests for multiple comparisons. P<0.05 was accepted as significant. Unless specified, all averaged data are from n>5 experiments.
Mouse bronchus preparations were carefully mounted horizontally on fine (40 μm) stainless steel wires attached to the jaws of a Mulvany-Halpem myograph. After 60 min at 37° C., all rings were stretched to 0.5 g passive force, which had been determined in preliminary experiments to be optimal, and allowed to recover from that stretch for a further 30 min. Maximum contraction (Fmax) in each tissue was then determined with exogenously applied acetylcholine (ACh; 30 μM) followed by washout. A further 30 min equilibration time was allowed before the tissues were actively contracted to between 20% and 60% of their individual Fm.” values with titrated concentrations of carbachol (10–100 nM). […] In some cases, tissues were treated with a range of drugs prior to contraction to approximately […] Fmax. These included the cyclooxygenase inhibitors indomethacin and aspirin, the nitric oxide (NO) synthase inhibitor N′-nitro-L-(L-NOARG), the NO scavenger oxyhaemoglobin (Hb0), and the L-voltage-operated Cat' channel inhibitor nifedipine.
After an initial passive stretch to 0.5 g (Ti) and recovery, each ring was contracted with acetylcholine (Ach; 30 μM). The contraction was taken as the tissue maximum and referred to as Fmax.

[1] = system: first generation branches of the mouse main bronchi; settings: mouse bronchioles
Text: as §1
as §2, with “All cumulative responses (relaxations and contractions) were normalised as percentages of the initial level of active force to carbachol. Results” for “Results”

rat isolated bronchi = system: rat isolated bronchi
Text: as §1
as §2, with “All cumulative responses (relaxations and contractions) were normalised as percentages of the initial level of active force to carbachol. Results” for “Results”

[2] = system: guinea-pig isolated bronchi
Text: as §1
Mouse bronchus preparations were carefully mounted horizontally on fine (40 μm) stainless steel wires attached to the jaws of a Mulvany-Halpem myograph. After 60 min at 37° C., all rings were stretched to 0.5 g passive force, which had been determined in preliminary experiments to be optimal, and allowed to recover from that stretch for a further 30 min. Maximum contraction (Fmax) in each tissue was then determined with exogenously applied acetylcholine (ACh; 30 μM) followed by washout. A further 30 min equilibration time was allowed before the tissues were actively contracted to between 20% and 60% of their individual Fm.” values with titrated concentrations of carbachol (10–100 nM).

[3] = system: isolated human bronchioles
Protocol: Small (500 μm) bronchioles were carefully dissected from discarded sections of human left lung which had been excised at surgery from two male lung cancer patients (Royal Melbourne Hospital, Melbourne, Australia).
Dissection of these bronchioles required a fine-dissecting microscope and an assistant to continually flood the preparation with cold oxygenated Krebs solution to remove air bubbles and keep the tissue viable. Bronchioles approximately 2 mm in length were then mounted on […] diameter stainless wires in a Krebs solution-filled myograph chamber, as described for the mouse bronchus preparation above.

rat gastric fundus = settings: mucosa intact, contracted with acetylcholine
Text: Longitudinal strips of gastric fundus from male Sprague-Dawley rats were suspended under 1 g passive isometric tension in Krebs solution.

[4] = system: human coronary artery rings
[5] = desensitized to both thrombin and trypsin

| Substance | relaxation in presence of NO blockers (mouse bronchial rings) | response of epithelium-intact bronchi (mouse bronchial rings) | relaxation after removal of the epithelium (mouse bronchial rings) | response in presence of cyclooxygenase inhibitors (mouse bronchial rings) | maximum relaxation (Rmax) (mouse bronchial rings) [%] | sensitivity (pEC50) (mouse bronchial rings) | response after desensitisation to thrombin (mouse bronchial rings) | response after desensitisation to trypsin (mouse bronchial rings) | maximum relaxation (Rmax) [1] [%] | sensitivity (pEC50) [1] | response of epithelium-intact rings [2] | response of human bronchioles [3] | response of rat gastric fundus (rat gastric fundus) | also measured |
| --- | --- | --- | --- | --- | --- | --- | --- | --- | --- | --- | --- | --- | --- | --- |
| SLIGRL-NH2 [SLIGRL—NH2] | unaffected | powerful concentration dependent relaxations | abolished | abolished | 94±3 | 5.6±0.1 −log M | unaffected | abolished | 58±4 | 5.1±0.05 | Concentration dependent relaxations to PAR2-AP were observed in six out of thirteen bronchial rings | appeared to cause some contraction, but this was most likely baseline drift | relaxation | response after desensitisation to trypsin (mouse bronchial rings; listed as PAR2-AP): virtually abolished; Rmax (rat isolated bronchi; rat bronchi): 56±5%; pEC50 (rat isolated bronchi; rat bronchi): 5.5±0.1; response of epithelium-denuded rings ([2]; epithelium-denuded): either caused a small contraction or no response; Rmax ([2]; guinea-pig bronchi): 31±5%; pEC50 ([2]; guinea-pig bronchi): 5.4±0.2; relaxation ([4]; endothelium-intact): no relaxation |
| SFLLRN [SFLLRN—NH2] | unaffected | powerful concentration dependent relaxations | abolished | converted to concentration-dependent contractions | 76±11 | 5.6±0.1 −log M | abolished | abolished | 58±10 | 5.5±0.02 | only caused concentration-dependent contractions | relaxed the bronchioles | relaxation | response of rat bronchial rings (rat isolated bronchi): only caused a contraction; maximum relaxation relative to isoprenaline plus IBMX ([3]; contracted to approximately 30% Fmax with carbachol): approximately 30%; Rmax after desensitisation [4, 5]: 92.0±5.0%; pEC50 after desensitisation [4, 5]: 6.4±0.2; relaxation after removal of the endothelium ([4]; endothelium-denuded): abolished; maximum (Rmax % contraction reversal) ([4]; endothelium-intact, control): 95.2±1.3%; pEC50 ([4]; endothelium-intact, control): 6.9±0.1 −log M; pEC50, untreated control of desensitisation experiment ([4]; untreated, n=8): 7.0±0.1 |
